Test results from US12534496B2, “Polymorphic forms of Cyclo (-His-Pro) and methods of use to treat kidney disease” (NovMetaPharma Co., Ltd., priority 2018, dated 2026).
Entries after “also recorded” stand apart in the source; their conditions may differ.

Columns and labels:
Format in all cases: physicochemical
[1] = Solubility of CHP hydrate (Pattern 2) in water/acetone
[2] = Variable temperature and humidity XRPD (VT-/VH-XRPD)
Experimental: VT-/VH-XRPD analysis was carried out on a Philips X'Pert ProMultipurpose diffractometer equipped with a temperature and humidity chamber. The samples were scanned between 4 and 35.99° 2θ using Cu K radiation (α1λ=1.54060 Å; α2=1.54443 Å; β=1.39225 Å; α1:α2 ratio=0.5) running in Bragg-Brentano geometry (step size 0.008° 2θ) using 40 kV/40 mA generator settings. Measurements were performed at each step of the humidity profile below:
Program: 40% RH/ambient temperature—initial scan
• 0% RH/ambient temperature—initial scan, 1-hour hold, scan • 0% RH/80° C.—initial scan, 20-minute hold, scan • 0% RH/80° C.—initial scan, 80-minute hold, scan 11. High Performance Liquid Chromatography-Ultraviolet Detection (HPLC-UV) Instrument: Dionex Ultimate 3000 Column: LC/168 X-Bridge Phenyl Column (150 mm×4.6 mm×3.5 μm) Column Temperature: 30° C. Autosampler Temperature: 5° C. UV wavelength: 220 nm Injection Volume: 5 μL Flow Rate: 1 ml/min Mobile Phase A: 10 mM Ammonium acetate Mobile Phase B: Acetonitrile Diluent: 0.1% TFA in water Gradient program: […]

[3] = 8-week stability assessment at 40 °C/75% RH (XRPD, appearance, chiral HPLC); conditions: for Chiral Purity: chiral HPLC
Experimental: XRPD analysis was carried out on a PANalytical X'pert pro, scanning the samples between 3 and 35° 2θ. The material was gently ground to release any agglomerates and loaded onto a multi-well plate with Kapton or Mylar polymer film to support the sample. The multi-well plate was then placed into the diffractometer and analyzed using Cu K radiation (α1λ=1.54060 Å; α2=1.54443 Å; β=1.39225 Å; α1: α2 ratio=0.5) running in transmission mode (step size 0.0130° 2θ) using 40 kV/40 mA generator settings.
13. Chiral HPLC Column: Daicel IC (5.0 um, 250*4.6 mm) Column Temperature: 30° C. Injection Volume: 5 μL Flow Rate: 1.0 mL/min Mobile Phase A: 0.01% DEA in n-Hexane Mobile Phase B: EtOH:MeOH=2:8 (v/v) Diluent: Acetonitrile PDA Range: 220 nm Gradient program: […]

- solubility ([1]; water/acetone 0/10 (v/v), 50 °C, organic solvent or mixture): 14 mg/mL
- solubility ([1]; water/acetone 0.5/9.5 (v/v), 50 °C, organic solvent or mixture): 49 mg/mL
- solubility ([1]; water/acetone 1/9 (v/v), 5 °C, organic solvent or mixture): 48 mg/mL
- solubility ([1]; water/acetone 1/9 (v/v), 50 °C, organic solvent or mixture): 159 mg/mL
- solubility ([1]; water/acetone 2/8 (v/v), 5 °C, organic solvent or mixture): 110 mg/mL
- solubility ([1]; water/acetone 4/6 (v/v), 5 °C, organic solvent or mixture): 179 mg/mL
- solubility ([1]; water/acetone 6/4 (v/v), 5 °C, aqueous with cosolvent or surfactant or cyclodextrin): 206 mg/mL
- solubility ([1]; water/acetone 8/2 (v/v), 5 °C, aqueous with cosolvent or surfactant or cyclodextrin): > 200 mg/mL
- solubility ([1]; water/acetone 9/1 (v/v), 5 °C, aqueous with cosolvent or surfactant or cyclodextrin): 215 mg/mL
- solubility ([1]; water/acetone, 5 °C, organic solvent or mixture, water/acetone 0/10 (v/v)): 17 mg/mL
- solubility ([1]; water/acetone, 5 °C, organic solvent or mixture, water/acetone 0.5/9.5 (v/v)): 19 mg/mL
- solubility ([1]; water/acetone, 50 °C, aqueous with cosolvent or surfactant or cyclodextrin, water/acetone 6/4 (v/v)): > 200 mg/mL
- solubility ([1]; water/acetone, 50 °C, aqueous with cosolvent or surfactant or cyclodextrin, water/acetone 8/2 (v/v)): > 200 mg/mL
- solubility ([1]; water/acetone, 50 °C, aqueous with cosolvent or surfactant or cyclodextrin, water/acetone 9/1 (v/v)): > 200 mg/mL
- solubility ([1]; water/acetone, 50 °C, organic solvent or mixture, water/acetone 2/8 (v/v)): > 200 mg/mL
- solubility ([1]; water/acetone, 50 °C, organic solvent or mixture, water/acetone 4/6 (v/v)): > 200 mg/mL
- VT/VH-XRPD Identity ([2]; Run 1: 40% RH, ambient temperature, listed as CHP Pattern 2): Pattern 2
- VT/VH-XRPD Identity ([2]; Run 2: 0% RH, ambient temperature, 1-hour hold, listed as CHP Pattern 2): Pattern 2
- VT/VH-XRPD Identity ([2]; Run 2: 0% RH, ambient temperature, 1-hour hold, listed as CHP pattern 2): Pattern 2 input material remained
- VT/VH-XRPD Identity ([2]; Run 3: 0% RH, 80 °C, 20-minute hold, listed as CHP Pattern 2): Pattern 1
- VT/VH-XRPD Identity ([2]; Run 4: 0% RH, 80 °C, 80-minute hold): pure Pattern 1 remained
- VT/VH-XRPD Identity ([2]; Run 4: 0% RH, 80 °C, 80-minute hold, listed as CHP Pattern 2): Pattern 1
- VT/VH-XRPD Identity ([2]; Run 4: 0% RH, 80 °C, 80-minute hold, listed as CHP pattern 2): Pure pattern 1 remained
- Appearance ([3]; 2-week): White
- Appearance ([3]; 4-week): White
- XRPD form after storage ([3]; 4 weeks, listed as CHP pattern 2): no change in form
- Appearance ([3]; 8-week): White
- XRPD form after storage ([3]; 8 weeks): no change in form
- XRPD form after storage ([3]; 8 weeks, listed as CHP pattern 2): no change in form
- XRPD form after storage ([3]; 8 weeks, listed as pattern 2 CHP): pattern 2 prevailed
- Appearance ([3]; Initial): White
- Chiral Purity ([3]; 2-week): >99.9%
- Chiral Purity ([3]; 4-week): 99.9%
- Chiral Purity ([3]; Initial): 99.9%
- XRPD form after storage ([3]; two weeks (14 days), listed as CHP pattern 2): no change in form
Structure (SMILES): O=C1N[C@@H](Cc2cnc[nH]2)C(=O)N2CCC[C@@H]12 [Pattern 2, Pyrrolo [1,2-a]pyrazine-1,4-dione, hexahydro-3-(1H-imidazol-5-ylmethyl)-, hydrate (1:1), (3S, 8aS)-]
- VT/VH-XRPD Identity ([2]; Run 1: 40% RH, ambient temperature): stable; also recorded: Pattern 2 was present
- VT/VH-XRPD Identity ([2]; Run 2: 0% RH, ambient temperature, 1-hour hold): remains as Pattern 2; also recorded: Pattern 2 remained
- VT/VH-XRPD Identity ([2]; Run 3: 0% RH, 80 °C, 20-minute hold): converted Pattern 2 to Pattern 1; also recorded: pure Pattern 1
- VT/VH-XRPD Identity ([2]; Run 3: 0% RH, 80 °C, 20-minute hold, listed as CHP pattern 2): changed form which was assigned as pure pattern 1
